Series [1] deals with Cyclooxygenase (Rattus norvegicus) (UniProt P35355+Q63921). In words: The compound was tested for inhibition of Prostaglandin G/H synthase in rat polymorphonuclear leukocytes[PMNS] at 100 uM concentration. The class given is functional, cell-based.
In series [2] the test system is Mus musculus. Nature of the series: The effective dose for inhibition of mouse zymosan peritonitis (in vivo). The series is classed as functional.
Series [3] addresses T1, Polyunsaturated fatty acid 5-lipoxygenase (Rattus norvegicus, UniProt P12527).
T1 sequence (P12527 whole entry): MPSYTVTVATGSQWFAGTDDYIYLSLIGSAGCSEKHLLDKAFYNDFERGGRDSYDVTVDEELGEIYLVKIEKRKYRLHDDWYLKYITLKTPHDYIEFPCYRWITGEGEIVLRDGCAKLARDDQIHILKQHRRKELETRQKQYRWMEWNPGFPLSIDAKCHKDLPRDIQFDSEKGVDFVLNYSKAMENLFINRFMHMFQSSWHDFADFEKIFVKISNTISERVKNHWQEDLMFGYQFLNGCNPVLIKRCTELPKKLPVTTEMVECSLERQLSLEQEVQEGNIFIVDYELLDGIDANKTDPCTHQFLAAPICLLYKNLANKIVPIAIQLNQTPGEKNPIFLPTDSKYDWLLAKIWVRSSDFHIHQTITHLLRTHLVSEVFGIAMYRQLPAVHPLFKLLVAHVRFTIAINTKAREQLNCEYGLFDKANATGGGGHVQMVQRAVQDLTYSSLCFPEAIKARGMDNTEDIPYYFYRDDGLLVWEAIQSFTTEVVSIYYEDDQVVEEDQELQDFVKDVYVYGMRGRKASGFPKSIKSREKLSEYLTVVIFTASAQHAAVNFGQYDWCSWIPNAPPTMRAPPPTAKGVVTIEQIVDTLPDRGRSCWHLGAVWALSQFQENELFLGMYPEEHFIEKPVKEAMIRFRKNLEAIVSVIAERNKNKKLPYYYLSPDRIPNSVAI
Nature of the series: The compound was tested for inhibitory activity against 5-lipoxygenase in rat polymorphonuclear leukocytes[PMNS] (in vitro). The class given is cell-based.

In series [4] the test system is Rattus norvegicus. In words: The effective dose after peroral administration for antiinflammatory activity against rat carrageenan edema. The series is classed as functional. The conditions noted are these: po.
A short description of series [5]: The compound was tested for inhibitory activity which inhibits prostaglandin E2[PGE2] synthesis by zymosan-activated mouse peritoneal macrophages. The class given is functional.
For series [6], the species on record is Rattus norvegicus. Nature of the series: The compound was tested for inhibitory activity against synthesis of immunoreactive thromboxane B2 in rat PMNs. The series is classed as functional.
The species named for series [7] is Mus musculus. In words: The compound was tested for inhibitory activity which inhibits LTC4 synthesis by zymosan-activated mouse peritoneal macrophages. The series is classed as functional.
Series [8] is described as follows: Plasma half-life was determined; 0.5-17.7h. The series is classed as ADME.
For series [9], the species on record is Cavia porcellus. Nature of the series: The compound was tested for blocking of LTD4-induced contractions of guinea pig trachea. To be noted: read-out: pA2 (converted). The class given is functional.
In series [10] the test system is Cavia porcellus. Nature of the series: The inhibitory dose for antigen induced bronchoconstriction in guinea pig after peroral administration. The series is classed as functional. To be noted: po, read-out: ID50 (the source's name).
Series [11] in a line: Oral bioavailability was determined; range 49-102%. The class given is ADME, organism-based. To be noted: in vivo, read-out: Bioavailabiility.
Series [12] concerns Rattus norvegicus. Nature of the series: The compound was tested for inhibition in rat carrageenan paw edema assay. The class given is functional.
For series [13], the species on record is Rattus norvegicus. In words: The compound was tested for inhibitory activity against synthesis of immunoreactive LTB4. The series is classed as functional.
The species named for series [14] is Rattus norvegicus. In words: The compound was tested for inhibitory activity against […] synthesis in rat macrophages. The series is classed as functional.
Series [15] concerns the target T2, Cysteinyl leukotriene receptor 1 (Cavia porcellus, UniProt Q2NNR5).
T2 sequence (Q2NNR5 whole entry): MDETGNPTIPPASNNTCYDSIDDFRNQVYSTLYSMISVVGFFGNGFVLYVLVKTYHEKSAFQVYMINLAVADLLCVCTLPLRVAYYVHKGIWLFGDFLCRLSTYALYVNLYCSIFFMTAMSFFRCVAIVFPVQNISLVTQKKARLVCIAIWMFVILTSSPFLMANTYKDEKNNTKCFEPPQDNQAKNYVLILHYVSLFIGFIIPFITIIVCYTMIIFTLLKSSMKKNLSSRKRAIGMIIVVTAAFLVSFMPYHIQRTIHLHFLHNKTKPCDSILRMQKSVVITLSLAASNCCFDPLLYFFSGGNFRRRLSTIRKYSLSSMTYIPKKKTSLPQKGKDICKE
In words: The compound was tested for binding affinity against Cysteinyl leukotriene D4 receptor in a soluble guinea pig LTD4 receptor preparation.

The target of series [16] is T3, Polyunsaturated fatty acid 5-lipoxygenase (Homo sapiens, UniProt P09917).
T3 sequence (P09917 whole entry): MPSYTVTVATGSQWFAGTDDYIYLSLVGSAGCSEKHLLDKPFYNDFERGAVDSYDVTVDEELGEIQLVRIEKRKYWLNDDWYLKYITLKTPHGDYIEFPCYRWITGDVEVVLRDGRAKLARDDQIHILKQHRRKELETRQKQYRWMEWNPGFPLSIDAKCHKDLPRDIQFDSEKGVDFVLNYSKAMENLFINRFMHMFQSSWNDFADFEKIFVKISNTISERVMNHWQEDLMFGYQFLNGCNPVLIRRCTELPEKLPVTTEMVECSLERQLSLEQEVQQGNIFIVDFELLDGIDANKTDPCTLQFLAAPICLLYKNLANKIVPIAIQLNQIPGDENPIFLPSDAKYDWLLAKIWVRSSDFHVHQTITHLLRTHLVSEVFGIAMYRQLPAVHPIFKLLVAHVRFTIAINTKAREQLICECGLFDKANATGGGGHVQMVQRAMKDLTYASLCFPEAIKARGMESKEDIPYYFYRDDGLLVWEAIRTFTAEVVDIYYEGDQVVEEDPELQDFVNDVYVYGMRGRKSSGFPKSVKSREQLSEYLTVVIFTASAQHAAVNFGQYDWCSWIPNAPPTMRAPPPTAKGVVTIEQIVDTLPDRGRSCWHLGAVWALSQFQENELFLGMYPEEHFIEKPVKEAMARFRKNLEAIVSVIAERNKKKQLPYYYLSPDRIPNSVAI
In words: The compound was tested for inhibitory activity against 5-lipoxygenase in human polymorphonuclear leukocytes[PMNS]. The class given is cell-based.

The record followed here is ChEMBL document CHEMBL1125472, “5-lipoxygenase: properties, pharmacology, and the quinolinyl(bridged)aryl class of inhibitors” (J Med Chem, 1992).

Cyclooxygenase (Rattus norvegicus), sequence (P35355 whole entry, looked up): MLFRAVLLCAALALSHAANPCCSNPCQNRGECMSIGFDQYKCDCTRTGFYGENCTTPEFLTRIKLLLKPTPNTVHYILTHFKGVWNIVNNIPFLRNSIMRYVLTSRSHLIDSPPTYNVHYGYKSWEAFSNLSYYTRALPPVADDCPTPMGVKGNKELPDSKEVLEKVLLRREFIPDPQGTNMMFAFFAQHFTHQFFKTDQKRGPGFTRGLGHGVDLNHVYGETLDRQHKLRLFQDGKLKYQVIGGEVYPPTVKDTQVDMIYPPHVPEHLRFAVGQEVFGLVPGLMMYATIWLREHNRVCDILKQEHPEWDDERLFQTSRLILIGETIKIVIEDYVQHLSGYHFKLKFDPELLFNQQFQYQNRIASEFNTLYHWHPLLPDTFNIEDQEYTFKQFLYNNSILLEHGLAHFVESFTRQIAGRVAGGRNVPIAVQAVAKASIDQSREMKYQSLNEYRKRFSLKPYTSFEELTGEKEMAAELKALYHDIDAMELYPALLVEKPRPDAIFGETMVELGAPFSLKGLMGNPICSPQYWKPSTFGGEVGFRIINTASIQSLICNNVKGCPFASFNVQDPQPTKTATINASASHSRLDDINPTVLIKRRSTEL
Cyclooxygenase (Rattus norvegicus), sequence (Q63921 whole entry, looked up): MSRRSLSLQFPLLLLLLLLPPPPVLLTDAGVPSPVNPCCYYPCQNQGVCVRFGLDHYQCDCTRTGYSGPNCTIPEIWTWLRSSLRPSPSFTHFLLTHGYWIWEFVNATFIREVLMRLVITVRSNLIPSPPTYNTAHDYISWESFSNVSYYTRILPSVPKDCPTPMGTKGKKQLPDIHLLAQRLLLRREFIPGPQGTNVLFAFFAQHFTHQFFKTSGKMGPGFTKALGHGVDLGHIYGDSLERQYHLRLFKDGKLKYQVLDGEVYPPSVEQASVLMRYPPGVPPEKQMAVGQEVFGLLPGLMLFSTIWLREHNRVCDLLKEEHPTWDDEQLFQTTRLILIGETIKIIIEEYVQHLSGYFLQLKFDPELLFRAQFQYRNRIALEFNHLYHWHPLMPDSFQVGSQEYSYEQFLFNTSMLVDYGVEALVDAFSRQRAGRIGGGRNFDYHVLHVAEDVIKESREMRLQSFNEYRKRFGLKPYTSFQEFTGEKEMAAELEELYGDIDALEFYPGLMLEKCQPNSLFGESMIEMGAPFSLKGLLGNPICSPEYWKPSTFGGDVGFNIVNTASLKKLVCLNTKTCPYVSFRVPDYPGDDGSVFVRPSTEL

In turn, `CC(C(=O)O)c1ccc2cc(OCc3ccc4ccccc4n3)ccc2c1` (configuration not stated) showed an Inhibition in series [1] of 30%. In addition, the ED50 in [2] amounted to 11.1 mg/kg; in [4], 75 mg/kg. Moreover, the half-inhibitory concentration (IC50) in series [3] worked out at 130 nM.

As for `O=S(=O)(Nc1cccc(OCc2ccc3ccccc3n2)c1)C(F)(F)F` [RITOLUKAST], the IC50 in series [5] was determined as 4300 nM; in series [6], 3300 nM; in [7], 4400 nM; in series [13] it was 4600 nM. Moreover, in series [8], the half-life was 30 min. Also, the Kb in [9] is 24 nM. In addition, in series [10], the ED50 was found to be 0.6 mg/kg. The bioavailability in [11] stood at 49%. This compound returned an Inhibition in series [12] of 20%.

For `CC1=C(C)C(=O)C(CCCCC#CCCCC#CCO)=C(C)C1=O` [DOCEBENONE], in [14], inhibition was half-maximal at 80 nM (IC50).

For `CCCc1c(OCCCCc2nnn[nH]2)ccc(C(C)=O)c1O` [TOMELUKAST], the Kb in [9] is 209 nM. In series [15], this compound gave a Ki of 60 nM.

`O=C(O)c1ccc(CN(Cc2cccc(F)c2)c2ccc(OCc3ccc4ccccc4n3)cc2)cc1` showed a half-maximal inhibitory concentration (IC50) in series [16] of 20 nM.
